In the NIST ThermoML archive (doi:10.1016/j.jct.2017.03.040):

Assay: mn = molality of the nth substance listed, in mol/kg
Settings: 100 kPa, Liquid; for speed of sound: Frequency=3 MHz, Single path-length method; for mass density: Vibrating tube method

CC(=O)N[C@@H](CS)C(=O)O [N-acetyl-L-cysteine] + O
Settings | mass density, 288.15 K [kg/m3] | mass density, 298.15 K [kg/m3] | mass density, 308.15 K [kg/m3] | mass density, 318.15 K [kg/m3] | speed of sound, 288.15 K [m/s] | speed of sound, 298.15 K [m/s] | speed of sound, 308.15 K [m/s] | speed of sound, 318.15 K [m/s]
m1 = 0.09902 | 1003.53 | 1001.37 | 998.26 | 994.33 | 1472.9 | 1501.8 | 1523.8 | 1539.8
m1 = 0.1981 | 1007.96 | 1005.7 | 1002.49 | 998.44 | 1479.4 | 1507 | 1527.9 | 1543.2
m1 = 0.2976 | 1012.41 | 1010.05 | 1006.74 | 1002.57 | 1485.8 | 1512.3 | 1532.1 | 1546.7
m1 = 0.397 | 1016.85 | 1014.39 | 1010.98 | 1006.7 | 1492.3 | 1517.5 | 1536.3 | 1550.2
m1 = 0.4992 | 1021.42 | 1018.86 | 1015.35 | 1010.94 | 1498.9 | 1522.9 | 1540.6 | 1553.8
m1 = 0.5991 | 1025.88 | 1023.22 | 1019.61 | 1015.09 | 1505.4 | 1528.2 | 1544.8 | 1557.3
m1 = 0.6903 | 1029.96 | 1027.21 | 1023.51 | 1018.87 | 1511.3 | 1533 | 1548.6 | 1560.5

CCCCCn1cc[n+](C)c1.[Br-] [1-pentyl-3-methylimidazolium bromide] + O
Settings | mass density, 288.15 K [kg/m3] | mass density, 298.15 K [kg/m3] | mass density, 308.15 K [kg/m3] | mass density, 318.15 K [kg/m3] | speed of sound, 288.15 K [m/s] | speed of sound, 298.15 K [m/s] | speed of sound, 308.15 K [m/s] | speed of sound, 318.15 K [m/s]
m1 = 0.005 | 999.3 | 997.23 | 994.23 | 990.42 | 1467.7 | 1497.3 | 1520.3 | 1536.7
m1 = 0.01 | 999.5 | 997.42 | 994.42 | 990.62 | 1468.5 | 1498 | 1520.7 | 1537.4
m1 = 0.03 | 1000.31 | 998.19 | 995.2 | 991.41 | 1470.8 | 1500.3 | 1522.5 | 1539.1
m1 = 0.05 | 1001.11 | 998.96 | 995.98 | 992.21 | 1473.7 | 1502.8 | 1524.6 | 1541

N[C@@H](CS)C(=O)O [(R)-2-amino-3-mercaptopropanoic acid] + O
Settings | mass density, 288.15 K [kg/m3] | mass density, 298.15 K [kg/m3] | mass density, 308.15 K [kg/m3] | mass density, 318.15 K [kg/m3] | speed of sound, 288.15 K [m/s] | speed of sound, 298.15 K [m/s] | speed of sound, 308.15 K [m/s] | speed of sound, 318.15 K [m/s]
m1 = 0.09747 | 1003.7 | 1001.64 | 998.63 | 994.82 | 1474 | 1503.6 | 1525.8 | 1541.9
m1 = 0.1985 | 1008.47 | 1006.41 | 1003.4 | 999.59 | 1481.8 | 1510.9 | 1532.2 | 1547.8
m1 = 0.2986 | 1013.2 | 1011.13 | 1008.12 | 1004.32 | 1489.5 | 1518 | 1538.6 | 1553.6
m1 = 0.3968 | 1017.83 | 1015.77 | 1012.76 | 1008.96 | 1497.1 | 1525.1 | 1544.9 | 1559.3
m1 = 0.4932 | 1022.38 | 1020.32 | 1017.31 | 1013.51 | 1504.5 | 1532 | 1551 | 1564.8
m1 = 0.6 | 1027.42 | 1025.36 | 1022.35 | 1018.55 | 1512.7 | 1539.6 | 1557.8 | 1571
m1 = 0.6922 | 1031.77 | 1029.71 | 1026.7 | 1022.9 | 1519.8 | 1546.2 | 1563.6 | 1576.4
